Activity calls are given as the source filed them. How the calls were made is not given here.
Test system: CCRIS mutagenicity, Ames/micronucleus/aberration tests
Test: CCRIS mutagenicity studies

Structure (SMILES): CC(=NC#N)N(C)Cc1ccc(Cl)nc1
- mutagenic call (End Point: In vitro chromosomal aberrations, Test System: Human peripheral lymphocytes, Metabolic Activation: None): active; positive (structural changes), 20% purity (commercial product mosetam 20 sp).
- mutagenic call (End Point: In vitro micronucleus, Test System: Human peripheral lymphocytes, Metabolic Activation: None): active; positive, 20% purity (commercial product mosetam 20 sp).
- mutagenic call (End Point: In vivo micronucleus, Test System: Bone marrow polychromatic erythrocytes, Species: Mouse, Strain/Sex: CD-1/Female, Route: Gavage): inactive; negative
- mutagenic call (End Point: In vivo micronucleus, Test System: Bone marrow polychromatic erythrocytes, Species: Mouse, Strain/Sex: CD-1/Male, Route: Gavage): inactive; negative
- mutagenic call (Test System: Ames Salmonella typhimurium, Strain/Indicator: TA98, Metabolic Activation: None, Method: Preincubation): inactive; negative
- mutagenic call (Test System: Ames Salmonella typhimurium, Strain/Indicator: TA98, Metabolic Activation: Rodent, Liver, S-9, Method: Preincubation): inactive; negative
- mutagenic call (Test System: Ames Salmonella typhimurium, Strain/Indicator: TA100, Metabolic Activation: None, Method: Preincubation): inactive; negative
- mutagenic call (Test System: Ames Salmonella typhimurium, Strain/Indicator: TA100, Metabolic Activation: Rodent, Liver, S-9, Method: Preincubation): inactive; negative
- mutagenic call (Test System: Ames Salmonella typhimurium, Strain/Indicator: TA1535, Metabolic Activation: None, Method: Preincubation): inactive; negative
- mutagenic call (Test System: Ames Salmonella typhimurium, Strain/Indicator: TA1535, Metabolic Activation: Rodent, Liver, S-9, Method: Preincubation): inactive; negative
- mutagenic call (Test System: Ames Salmonella typhimurium, Strain/Indicator: TA1537, Metabolic Activation: None, Method: Preincubation): inactive; negative
- mutagenic call (Test System: Ames Salmonella typhimurium, Strain/Indicator: TA1537, Metabolic Activation: Rodent, Liver, S-9, Method: Preincubation): inactive; negative
- mutagenic call (Test System: E. coli, Strain/Indicator: WP2 uvrA, Metabolic Activation: None, Method: Preincubation): inactive; negative
- mutagenic call (Test System: E. coli, Strain/Indicator: WP2 uvrA, Metabolic Activation: Rodent, Liver, S-9, Method: Preincubation): inactive; negative
- mutagenic call (Test System: UDS F344 male rat hepatocytes, Strain/Indicator: THY INCORP, Method: Autoradiography): inactive; negative

Structure (SMILES): C=CCc1ccc(O)c(O)c1
- mutagenic call (Test System: AMES SALMONELLA TYPHIMURIUM, Strain/Indicator: TA97, Metabolic Activation: NONE, Method: STANDARD PLATE): inactive; negative
- mutagenic call (Test System: AMES SALMONELLA TYPHIMURIUM, Strain/Indicator: TA97, Metabolic Activation: RAT, LIVER, S-9, AROCLOR 1254, Method: STANDARD PLATE): inactive; negative
- mutagenic call (Test System: AMES SALMONELLA TYPHIMURIUM, Strain/Indicator: TA98, Metabolic Activation: NONE, Method: STANDARD PLATE): inactive; negative
- mutagenic call (Test System: AMES SALMONELLA TYPHIMURIUM, Strain/Indicator: TA98, Metabolic Activation: RAT, LIVER, S-9, AROCLOR 1254, Method: STANDARD PLATE): inactive; negative
- mutagenic call (Test System: AMES SALMONELLA TYPHIMURIUM, Strain/Indicator: TA100, Metabolic Activation: NONE, Method: STANDARD PLATE): inactive; negative
- mutagenic call (Test System: AMES SALMONELLA TYPHIMURIUM, Strain/Indicator: TA100, Metabolic Activation: RAT, LIVER, S-9, AROCLOR 1254, Method: STANDARD PLATE): inactive; negative
- mutagenic call (Test System: AMES SALMONELLA TYPHIMURIUM, Strain/Indicator: TA102, Metabolic Activation: NONE, Method: STANDARD PLATE): active; positive
- mutagenic call (Test System: AMES SALMONELLA TYPHIMURIUM, Strain/Indicator: TA102, Metabolic Activation: RAT, LIVER, S-9, AROCLOR 1254, Method: STANDARD PLATE): inactive; negative
- mutagenic call (Test System: AMES SALMONELLA TYPHIMURIUM, Strain/Indicator: TA1535, Metabolic Activation: NONE, Method: STANDARD PLATE): inactive; negative
- mutagenic call (Test System: AMES SALMONELLA TYPHIMURIUM, Strain/Indicator: TA1535, Metabolic Activation: RAT, LIVER, S-9, AROCLOR 1254, Method: STANDARD PLATE): inactive; negative
- mutagenic call (Test System: AMES SALMONELLA TYPHIMURIUM, Strain/Indicator: TA1538, Metabolic Activation: NONE, Method: STANDARD PLATE): inactive; negative
- mutagenic call (Test System: AMES SALMONELLA TYPHIMURIUM, Strain/Indicator: TA1538, Metabolic Activation: RAT, LIVER, S-9, AROCLOR 1254, Method: STANDARD PLATE): inactive; negative
